Reference: patent publication US9309263B2, “Fused multi-cyclic sulfone compounds as inhibitors of beta-secretase and methods of use thereof” (AMGEN INC., priority 2013, dated 2016)
Like-named read-outs stand apart in the source and are kept apart here.

Tests used:
Cathepsin D (Cat D) = Cathepsin D (Cat D) (Homo sapiens, UniProt P07339); assay: In vitro enzymatic Cathepsin D (Cat D) FRET assay; assay type: biochemical
In short: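 Recombinant CHO-expressed enzyme (9 nM) pre-incubated 1 h with serially diluted inhibitor in 0.05 M citrate pH 3.5, 10% DMSO final, 5 mM CHAPS. Reaction started with 20 nM FRET peptide substrate, run 1 h, stopped with Tris to neutral pH; fluorescence read at ex 500/em 580 nm.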

[1] = system: Aβ 40 in conditioned medium of cells stably expressing Amyloid Precursor Protein (APP); assay: In vitro BACE cell-based assay (Aβ 40 sandwich ELISA)
In short: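 APP-expressing cells, 24 h pre-culture in DMEM/10% FBS, treated 24 h with 10-point compound dilutions from 100 or 10 μM top, 0.1% DMSO final. Secreted Aβ40 quantified by sandwich ELISA (pAb40 capture, biotinylated 6E10 detection, europium TRF); IC50 from percent inhibition versus concentration.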

[2] = target: Beta Secretase enzyme (BACE) (Homo sapiens, UniProt P56817); assay: In vitro enzymatic BACE FRET assay; assay type: biochemical; details: read-out: BACE1 FRET assay IC50
Sequence of Beta Secretase enzyme (BACE) (P56817 46-501): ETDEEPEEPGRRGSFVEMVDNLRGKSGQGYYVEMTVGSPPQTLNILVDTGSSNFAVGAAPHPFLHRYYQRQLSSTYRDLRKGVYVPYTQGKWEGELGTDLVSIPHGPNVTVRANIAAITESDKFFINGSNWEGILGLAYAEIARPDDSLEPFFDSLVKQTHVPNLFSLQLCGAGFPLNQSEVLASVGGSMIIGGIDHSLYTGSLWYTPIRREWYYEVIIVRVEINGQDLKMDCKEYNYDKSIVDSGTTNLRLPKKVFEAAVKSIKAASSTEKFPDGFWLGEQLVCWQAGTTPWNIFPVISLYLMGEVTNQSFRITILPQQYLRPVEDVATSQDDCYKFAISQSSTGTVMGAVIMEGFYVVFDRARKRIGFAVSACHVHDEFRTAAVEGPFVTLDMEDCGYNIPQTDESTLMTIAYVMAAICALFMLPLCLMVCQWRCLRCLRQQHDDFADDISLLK
In short: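 Enzyme (0.2 nM) pre-incubated 1 h with serially diluted inhibitors in 0.05 M acetate pH 4.2, 10% DMSO, 100 uM genapol. Reaction started with 50 nM fluorophore/quencher peptide FRET substrate, run 1 h, stopped with Tris to neutral pH. Fluorescence read at excitation 488 nm, […].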

[3] = Homo sapiens, HEK293, HEK cells, average IC50
[4] = Cathepsin D FRET assay, read-out: CatD IC50
[5] = Homo sapiens, HEK293, average IC50, HEK cell assay, Aβ 40 readout
[6] = average IC50, in vitro enzymatic BACE FRET assay
[7] = text summary referring to data in Table 2
[8] = Homo sapiens, HEK293, HEK cell, average IC50

Sequence of Cathepsin D (Cat D) (P07339 65-412, species assumed): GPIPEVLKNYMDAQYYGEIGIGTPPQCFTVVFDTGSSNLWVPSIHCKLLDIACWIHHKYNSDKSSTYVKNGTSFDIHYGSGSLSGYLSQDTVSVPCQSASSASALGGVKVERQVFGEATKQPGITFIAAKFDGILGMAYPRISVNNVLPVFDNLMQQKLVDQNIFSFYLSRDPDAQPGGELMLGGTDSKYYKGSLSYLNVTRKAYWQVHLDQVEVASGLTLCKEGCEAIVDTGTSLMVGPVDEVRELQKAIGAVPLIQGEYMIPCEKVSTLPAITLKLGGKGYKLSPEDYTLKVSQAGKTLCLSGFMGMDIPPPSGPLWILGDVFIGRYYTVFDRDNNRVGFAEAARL

Compound | IC50 (Cathepsin D (Cat D); read-out: CatD IC50) [µM] | IC50 ([2]; average IC50) [µM] | IC50 (Cathepsin D (Cat D); [4]) [µM] | IC50 [1, 5] [µM] | IC50 [2, 6] [µM] | IC50 [1, 8] [µM] | other results
Cc1cc(OCC2CC2)cnc1C(=O)Nc1ccc2c(c1)[C@@]1(C)N=C(N)C(C)(C)S(=O)(=O)[C@@H]1CCO2 [Example 170, N-((4aR,11bR)-2-amino-3,3,11b-trimethyl-4,4-dioxido-4a,5,6,11b-tetrahydro-3H-[1]benzoxepino[4,5-b][1,4]thiazin-10-yl)-5-(cyclopropylmethoxy)-3-methyl-2-pyridinecarboxamide] | 2050 | 0.014 |  |  |  |  | IC50 [1, 3]: 0.026 µM
C[C@H]1C[C@@H]2[C@](C)(N=C(N)C(C)(C)S2(=O)=O)c2cc(Nc3nccc4nc(O)cnc34)ccc2O1 [Example 136, 5-(((4aR,6S,11bR)-2-amino-3,3,6,11b-tetramethyl-4,4-dioxido-4a,5,6,11b-tetrahydro-3H-[1]benzoxepino[4,5-b][1,4]thiazin-10-yl)amino)pyrido[3,4-b]pyrazin-2(1H)-one] |  |  | 247 | 0.016 | 0.025 |  | 
Cc1cc(Cl)cnc1C(=O)Nc1ccc2c(c1)[C@@]1(C)N=C(N)C(C)(C)S(=O)(=O)[C@@]1(C)CCO2 [Example 26, N-((4aS,11bR)-2-amino-3,3,4a,11b-tetramethyl-4,4-dioxido-4a,5,6,11b-tetrahydro-3H-[1]benzoxepino[4,5-b][1,4]thiazin-10-yl)-5-chloro-3-methyl-2-pyridinecarboxamide] | 995 | 0.003 |  |  |  | 0.001 | IC50 (Cathepsin D (Cat D); [7]): > 800 µM
COc1cnc(C(=O)Nc2cnc3c(c2)[C@@]2(C)N=C(N)C4(CCC4)S(=O)(=O)[C@@H]2CCO3)c(C)c1 [Example 64, N-((4a′R,11b′R)-2′-amino-1113′-methyl-4′,4′-dioxido-4a′,5′,6′,11b′-tetrahydrospiro[cyclobutane-1,3′-pyrido[3′,2′:6,7]oxepino[4,5-b][1,4]thiazin]-10′-yl)-5-methoxy-3-methyl-2-pyridinecarboxamide] | > 400 | 0.059 |  |  |  |  | IC50 ([1]; HEK cell, average IC50): 0.184 µM
Cc1cc(OC(F)F)cnc1C(=O)Nc1ccc2c(c1)[C@@]1(C)N=C(N)C(C)(C)S(=O)(=O)[C@@H]1CCO2 [Example 157, N-((4aR,11bR)-2-amino-3,3,11b-trimethyl-4,4-dioxido-4a,5,6,11b-tetrahydro-3H-[1]benzoxepino[4,5-b][1,4]thiazin-10-yl)-5-(difluoromethoxy)-3-methyl-2-pyridinecarboxamide] |  |  | 1200 | 0.003 | 0.002 |  | 
Cc1cc(Cl)cnc1C(=O)Nc1ccc2c(c1)[C@@]1(C)N=C(N)C(C)(C)S(=O)(=O)[C@]1(C)CCO2 [Example 27, N-((4aR,11bR)-2-amino-3,3,4a,11b-tetramethyl-4,4-dioxido-4a,5,6,11b-tetrahydro-3H-[1]benzoxepino[4,5-b][1,4]thiazin-10-yl)-5-chloro-3-methyl-2-pyridinecarboxamide] | 553 | 0.15 |  |  |  | 0.264 | 
Cc1cc(Cl)cnc1C(=O)Nc1ccc2c(c1)[C@@]1(CF)N=C(N)C(C)(C)S(=O)(=O)[C@@H]1CCO2 [Example 149, N-((4aR,11bS)-2-amino-11b-(fluoromethyl)-3,3-dimethyl-4,4-dioxido-4a,5,6,11b-tetrahydro-3H-[1]benzoxepino[4,5-b][1,4]thiazin-10-yl)-5-chloro-3-methyl-2-pyridinecarboxamide] |  |  | > 400 | 0.044 | 0.009 |  | 
CC1(C)C(N)=N[C@]2(C)c3cc(NC(=O)c4cnc(OCC(F)(F)F)cn4)ccc3OCC[C@H]2S1(=O)=O [Example 169, N-((4aR,11bR)-2-amino-3,3,11b-trimethyl-4,4-dioxido-4a,5,6,11b-tetrahydro-3H-[1]benzoxepino[4,5-b][1,4]thiazin-10-yl)-5-(2,2,2-trifluoroethoxy)-2-pyrazinecarboxamide] | 1620 | 0.001 |  |  |  |  | IC50 [1, 3]: 0.004 µM
CC1(C)C(N)=N[C@]2(CF)c3cc(Nc4nccc5cc(Cl)cnc45)ccc3OCC[C@@H]2S1(=O)=O [Example 154, (4aS,11bS)-N1^~10^~-(3-chloro-1,7-naphthyridin-8-yl)-11b-(fluoromethyl)-3,3-dimethyl-4a,5,6,11b-tetrahydro-3H-[1]benzoxepino[4,5-b][1,4]thiazine-2,10-diamine 4,4-dioxide] |  |  | 462 |  | 0.003 |  | IC50 ([1]; average IC50, HEK cell assay, Aβ 40 readout): 0.032 µM
CC1(C)C(N)=N[C@]2(C)c3cc(NC(=O)c4ncc(C(F)(F)F)cc4Cl)ccc3OCC[C@H]2S1(=O)=O [Example 25, N-((4aR,11bR)-2-amino-3,3,11b-trimethyl-4,4-dioxido-4a,5,6,11b-tetrahydro-3H-[1]benzoxepino[4,5-b][1,4]thiazin-10-yl)-3-chloro-5-(trifluoromethyl)-2-pyridinecarboxamide] | 3530 | 0.007 |  |  |  | 0.002 | IC50 (Cathepsin D (Cat D); [7]): > 1200 µM
C[C@]12N=C(N)C3(CCC3)S(=O)(=O)[C@@H]1CCOc1ncc(NC(=O)c3ccc(C#N)cn3)cc12 [Example 63, N-((4a′R,11b′R)-2′-amino-1113′-methyl-4′,4′-dioxido-4a′,5′,6′,11b′-tetrahydrospiro[cyclobutane-1,3′-pyrido[3′,2′:6,7]oxepino[4,5-b][1,4]thiazin]-10′-yl)-5-cyano-2-pyridinecarboxamide] | 868 | 0.036 |  |  |  | 0.164 | IC50 (Cathepsin D (Cat D); [7]): > 800 µM
Cc1cc(Cl)cnc1C(=O)Nc1ccc2c(c1)[C@@]1(C)N=C(N)C(C)(C)S(=O)(=O)[C@]1(F)CCO2 [Example 65, N-((4aR,11bR)-2-amino-4a-fluoro-3,3,11b-trimethyl-4,4-dioxido-4a,5,6,11b-tetrahydro-3H-[1]benzoxepino[4,5-b][1,4]thiazin-10-yl)-5-chloro-3-methyl-2-pyridinecarboxamide] | 324 | 0.006 |  |  |  | 0.074 | 
CC1(C)C(N)=N[C@]2(C)c3cc(NC(=O)c4cnc(OCC(F)F)cn4)ccc3OCC[C@H]2S1(=O)=O [Example 90, N-((4aR,11bR)-2-amino-3,3,11b-trimethyl-4,4-dioxido-4a,5,6,11b-tetrahydro-3H-benzo[6,7]oxepino[4,5-b][1,4]thiazin-10-yl)-5-(2,2-difluoroethoxy)pyrazine-2-carboxamide] |  |  | 919 | 0.011 | 0.007 |  | 
Cc1cc(Cl)cnc1C(=O)Nc1cnc2c(c1)[C@@]1(C)N=C(N)C(C)(C)S(=O)(=O)[C@H]1CCO2 [Example 20, N-((4aS,11bR)-2-amino-3,3,11b-trimethyl-4,4-dioxido-4a,5,6,11b-tetrahydro-3H-pyrido[3′,2′:6,7]oxepino[4,5-b][1,4]thiazin-10-yl)-5-chloro-3-methyl-2-pyridinecarboxamide] | 377 | 0.019 |  |  |  | 0.022 | 
Cc1cc(C(F)(F)F)cnc1C(=O)Nc1ccc2c(c1)[C@@]1(CF)N=C(N)C(C)(C)S(=O)(=O)[C@H]1CCO2 [Example 116, N-((4aS,11bS)-2-amino-11b-(fluoromethyl)-3,3-dimethyl-4,4-dioxido-4a,5,6,11b-tetrahydro-3H-[1]benzoxepino[4,5-b][1,4]thiazin-10-yl)-3-methyl-5-(trifluoromethyl)-2-pyridinecarboxamide] |  |  | > 400 | 0.014 | 0.011 |  | 
Cc1cc(Cl)cnc1C(=O)Nc1ccc2c(c1)[C@@]1(C)N=C(N)C(C)(C)S(=O)(=O)[C@H]1CCS2 [Example 115, N-((4aS,11bR)-2-amino-3,3,11b-trimethyl-4,4-dioxido-4a,5,6,11b-tetrahydro-3H-[1]benzothiepino[4,5-b][1,4]thiazin-10-yl)-5-chloro-3-methyl-2-pyridinecarboxamide] |  |  | 276 | 0.012 | 0.006 |  | 
Cc1cc(Cl)cnc1C(=O)Nc1ccc2c(c1)[C@@]1(C)N=C(N)C(C)(C)S(=O)(=O)[C@@H]1CCO2 [Example 6a, N-((4aR,11bR)-2-amino-3,3,11b-trimethyl-4,4-dioxido-4a,5,6,11b-tetrahydro-3H-benzo[6,7]oxepino[4,5-b][1,4]thiazin-10-yl)-5-chloro-3-methylpicolinamide] | > 100 | 0.002 |  |  |  | 0.006 | 
COc1cnc2c(Nc3ccc4c(c3)[C@@]3(C)N=C(N)C(C)(C)S(=O)(=O)[C@@H]3C[C@H](C)O4)nccc2n1 [Example 53, (4aR,6S,11bR)-N^~10^~-(2-methoxypyrido[3,4-b]pyrazin-5-yl)-3,3,6,11b-tetramethyl-4a,5,6,11b-tetrahydro-3H-[1]benzoxepino[4,5-b][1,4]thiazine-2,10-diamine 4,4-dioxide] | 977 | 0.032 |  |  |  | 0.011 | IC50 (Cathepsin D (Cat D); [7]): > 800 µM
COc1cnc(C(=O)Nc2ccc3c(c2)[C@@]2(C)N=C(N)C(C)(C)S(=O)(=O)[C@@H]2CCC3)cn1 [Example 10, N-((4aR,11bR)-2-amino-3,3,11b-trimethyl-4,4-dioxido-3,4a,5,6,7,11b-hexahydrobenzo[3,4]cyclohepta[1,2-b][1,4]thiazin-10-yl)-5-methoxy-2-pyrazinecarboxamide] | 340 | 0.011 |  |  |  | 0.004 | 
